Tests used:
HEK reporter cell line = test: cell-viability assay using alamar blue reagent; format: cell-based, human; settings: 72 hours
Protocol: To investigate the effect of this library on HDR efficiency and to identify novel molecules which would increase the HDR mediated gene editing efficiency, first we carried out a cell-viability assay using the HEK reporter cell line and alamar blue reagent. The experiment was performed to rule out any toxicity associated with the small molecule library. Briefly, 3 different concentration of inhibitors (0.1 μM, 1 μM and 10 μM) were added in the cells in a 96 well plate format and plates were incubated for 72 hours. After 72 hours, the media were replaced with alamar blue containing media and the plates were further incubated for 3 hours and then read on a Fluorstar omega plate reader. The table gives the results obtained with the subsequently-selected inhibitors, together with a range of other potential inhibitors.

[1] = tested on: HEK293 reporter cell line; test: CRISPR/Cas9-based HDR assay (wtCas9 RNP, ssOligo donor, EGFP positive cells by FACS); format: cell-based, human; settings: for HDR efficiency, single small molecule (FIG. 4): Example 4, first set of experiments, compared to no compound; for HDR efficiency in the initial screen with wtCas9: fold change compared to Cas9 alone, ≥20% increase (fold change ≥1.2) = positive influencer; for optimal concentration selected for further experiments: from the HDR dose dependency experiment; for concentration with the highest HDR efficiency: tested at 5, 10, 20 μM; for dose dependency of HDR efficiency (FIG. 3): three concentrations (low, medium, high) per inhibitor
Protocol: More specifically, an HDR assay using a HEK reporter cell line containing truncated EGFP may be used. These cells may be transfected with a transfection complex containing the CRISPR endonuclease and a donor sequence. Cas9 RNPs may be prepared by following the manufacturers' guidelines. The transfection complex may be prepared by adding Cas9 RNP or Cas9 nickase RNP, along with ssOligo donor and lipofectamine 2000 in Optimem. Reagents should be mixed well and incubated for 20 mins. After 20 mins, 50 μl of transfection complex (at an optimal concentration—see the Examples herein) may be transferred in a 96 well plate and 50 μl HEK293 reporter cell line suspension (9×10^5 cells/ml) added followed by 50 μl of cell culture medium containing appropriate concentration(s) of inhibitor(s). Cells may be incubated at 37° C. in a CO2 incubator for 24 hours and then inhibitor-containing media should be replaced with fresh media without inhibitor. Cells are then further incubated for 48 hours. After 48 hours, cells may be trypsinized and resuspended in PBS containing 10% FBS. Samples may be run on FACS and the percentage of EGFP in the population measured. Presence of EGFP directly correlates with HDR efficiency.
To investigate whether a knock-in truncated in HEK293 reporter cell line could be corrected by homology dependent repair, a CRISPR/Cas9-based HDR assay was used. We used ssODN as a donor template to correct the EGFP sequence and to restore functionality as ssODNs are known to be more efficient compared to the double-stranded donor for HDR based DNA repair. Briefly, cells were transfected with a wtCas9 ribonucleoprotein complex along with an oligo donor for restoring EGFP functionality. Cells were analysed by FACS 72 hours post-transfection (FIGS. 2A and 2B).
To identify the small molecules which would increases the HDR efficiency, we carried out experiments using the engineered HEK293 reporter cell line, ss-donor and wtCas9 in the presence of the inhibitors identified in Example 2. Briefly, in vitro reconstituted wtCas9 RNP with gRNA-X1 was transfected into the cells along with ssOligo donor (50 nM) in presence of the inhibitors. Inhibitor containing media was replaced with fresh media after 24 hours and cells were further incubated for 48 hours. After 48 hours cells were trypsinized and resuspended in 10% FBS containing PBS and analysed by FACS.
To understand whether increase in HDR is related to dose response, we carried out the HDR assay using three different concentrations of selected inhibitors as shown in the table below.
To investigate whether HDR efficiency would increase further by using the top hit small molecule combinations, we performed experiments using small molecule combinations for wtCas9. These combinations were selected using Design of Experiment (DoE) software. These combination experiments were carried out in 2 sets: the first set was performed in the absence of NU7441 (a known HDR enhancer); and the second set was performed in the presence of NU7441. […] In the second set of experiments, in the presence of NU7441, further increases (˜2fold) in HDR efficiency were observed compared to no NU7441 (FIG. 4). […]

| SMILES | % survival (HEK reporter cell line; 0.1 μM inhibitor) [%] | % survival (HEK reporter cell line; 1 μM inhibitor) [%] | % survival (HEK reporter cell line; 10 μM inhibitor) [%] | HDR efficiency, single small molecule (FIG. 4) ([1]; wtCas9) | HDR efficiency in the initial screen with wtCas9 [1] | optimal concentration selected for further experiments ([1]; wtCas9) [µM] | concentration with the highest HDR efficiency ([1]; wtCas9) [µM] | dose dependency of HDR efficiency (FIG. 3) ([1]; wtCas9) | further increase in HDR efficiency in the presence of NU7441 compared to no NU7441 (FIG. 4) ([1]; Example 4, second set of experiments, wtCas9) [fold] | HDR efficiency at high concentration (FIG. 3) ([1]; concentration of 2 μM, wtCas9) | HDR efficiency at high concentration (FIG. 3) ([1]; concentration of 0.2 μM, wtCas9) |
| --- | --- | --- | --- | --- | --- | --- | --- | --- | --- | --- | --- |
| O=C1NC(=O)/C(=C/c2cccc(C(F)(F)F)c2)S1 [SMI-4a] | 105.2 ± 0.07 | 103.18 ± 5.38 | 99.85 ± 1.22 | increase in HDR efficiency | increase the HDR efficiency | 20 | 20 | dose-dependent increases in HDR efficiency |  |  |  |
| O=c1cc(N2CCOCC2)oc2c(-c3cccc4c3sc3ccccc34)cccc12 [NU7441] | 103.58 ± 4.44 | 88.88 ± 3.55 | 22.95 ± 0.98 | increase in HDR efficiency | increase the HDR efficiency | 1 |  | highest HDR efficiency | ~2 | moderate increases |  |
| Cc1cc(CN2CCN(c3c(Br)cnc4nc(-c5ccc(N6CCN(C)CC6)cc5)[nH]c34)CC2)no1 [CCT137690] | 105.48 ± 3.94 | 63.37 ± 2.12 | −0.08 ± 0.1 |  |  |  |  |  |  |  |  |
| CCS(=O)(=O)c1cccc(-c2cc(C(=O)NC3CCN(C)CC3)c(C)c3[nH]c4ncc(C)cc4c23)c1 [TAK-901] | 88.9 ± 1.18 | 36.24 ± 0.88 | 5.65 ± 0.08 |  |  |  |  |  |  |  |  |
| O=C(Nc1c[nH]nc1-c1nc2cc(CN3CCOCC3)ccc2[nH]1)NC1CC1 [AT9283] | 81.49 ± 3.59 | 69.69 ± 1.2 | 7.1 ± 0.06 | increase in HDR efficiency | increase the HDR efficiency | 0.05 |  |  |  |  | moderated decreases in HDR efficiency |
| O=C([C@H](Cc1cccc(C(F)(F)F)c1)NS(=O)(=O)c1cc(F)c2c(c1)CCNC2)N1CCCC1 [S-PFI-2] | 99.98 ± 3.25 | 115.11 ± 2.47 | 94.25 ± 8.54 | increase in HDR efficiency | increase the HDR efficiency | 20 | 20 | dose-dependent increases in HDR efficiency |  |  |  |
| O=c1cc(N2CCOCC2)oc2c1ccc1ccccc12 [NU7026] | 100.08 ± 4.01 | 100.14 ± 4.13 | 83.17 ± 1.44 |  | increase the HDR efficiency |  |  |  |  |  |  |
